# Measurements: patent US5623080A, “Fluorone and pyronin Y derivatives” (Spectra Group Limited, Inc., priority 1995, dated 1997)
# Experiments:
# [1] = double bond conversion (C=C% Conversion) by FTIR
# Procedure: To a resin formulation consisting of 15 parts urethane diacrylate, 15 parts DPHPA, 20 parts TPGDA and 40 parts TMPTA was added DIDMA, initiator and (4-octyloxyphenyl)phenyliodonium hexafluoroantimonate (OPPI). The samples were coated to a thickness of 15 microns and exposed to a 75 W tungsten halogen dental lamp (focused through an optical fiber) at a distance of 0.75 inch at which the Light intensity was about 0.40 W/cm^2. The molar ratios are indicative of the amounts of fluorone to onium salt to amine coinitiator. The double bond conversion was determined by FTIR spectroscopy. The pencil hardness of a given test sample is measured by holding a pencil at a 45° angle to the sample and drawing across it towards the person testing it. Using the pencils in an order from softest to hardest, the first pencil that scratches the surface is assigned as the pencil hardness of the sample. The pencil hardness scale is as follows from softest to hardest: 4B, 3B, 2B, B, HB, H, 2H, 3H, 4H, 6H. For instance, if a 2H pencil is the first pencil to scratch the surface then the pencil hardness is 2H.
# [2] = absorption wavelength (λmax) and extinction (ε); type: physicochemical; settings: EtOH, Table 1
# depth of cure = assay: depth of cure
# Description: One of the advantages of the fluorone dye photoinitiators in this invention is the depth of the cure that is obtainable. This is in contrast to UV photoinitators that causes a "screening" effect which prevents the UV light from penetrating beyond a certain […] depth, usually several millimeters. By contrast, the fluorone dye bleaches as it photoinitiates and is concommitantly converted into a non-visible absorbing species thus allowing more visible light to penetrate which continues the cure. This cascading bleaching effect permits substantial depth of cure which can easily reach several inches.
# An acrylate monomer mixture was composed of 15 parts urethane diacrylate, 20 parts TPGPA, 40 parts TMPTA and 15 parts DPHPA, and a 20 to 1 weight ratio of NPG coinitiator to DIEF or DIBF fluorone dye. For dye concentrations of 0.01, 0.05 and 0.1 weight, all the formulations cured to a depth of 3 cm in 30 seconds when exposed to a 350 watt tungsten halogen light which provides about 500 mw/cm^2 irradiance. When the irradiance was increased to about 2 watts/cm^2 cure speed was shortened to 5 seconds for the same depth.
# An acrylate mixture was composed of 60% urethane diacrylate, 30% DPHPA, 10% BDDA, and 0.05 weight % of DIEF or DIBF fluorone dye with 2 weight % of DIDMA. The formulation cure to a depth greater than 1 cm in 10 seconds when exposed to a 75 watt tungsten halogen lamp which provided an irradiance of about 260 mw/cm^2.
# An acrylate mixture was composed of 33% TMPTA, 33% DPHPA, 33% Epoxy acrylate, and 2% of DIDMA with either 0.01, 0.05 or 0.1 weight % of DIEF. All samples cured to a depth greater than 1 cm in 10 seconds when exposed to a 75 watt tungsten halogen.
# An acrylate mixture was composed of 70% urethane diacrylate, 5% DPHPA, 25% BDDA, and 2% DIDMA with either 0.01, 0.03 or 0.1 weight % DIEF. The 0.01 and 0.03 samples cured after 2 passes through a 300 watt per inch medium pressure mercury arc lamp at a speed of 50 feet/minute to a depth greater than 3 mm. The 0.1 sample cured to a depth of greater than 1.5 mm.
smiles,measurement,setting,value
"CCCCOc1ccc2cc3cc(I)c(=O)c(I)c-3oc2c1 [DIBF, 5,7-diiodo-3-butoxy-6-fluorone]",C=C% Conversion,"[1]; 0.05 wt %, (1:0:60), DIDMA, 30 sec",37%
same,C=C% Conversion,"[1]; 0.05 wt %, (1:1:60), DIDMA, 30 sec",37%
same,C=C% Conversion,"[1]; 0.05 wt %, (1:2:0), DIDMA, 30 sec",5%
same,C=C% Conversion,"[1]; 0.05 wt %, (1:2:3), DIDMA, 30 sec",40%
same,C=C% Conversion,"[1]; 0.05 wt %, (1:2:3), DIDMA, 60 sec",43%
same,C=C% Conversion,"[1]; 0.05 wt %, (1:2:3), NPG, 30 sec",40%
same,C=C% Conversion,"[1]; 0.05 wt %, (1:2:5), DIDMA, 30 sec",40%
same,C=C% Conversion,"[1]; 0.05 wt %, (1:2:60), DIDMA, 30 sec",43%
same,C=C% Conversion,"[1]; 0.10 wt %, (1:2:0), DIDMA, 30 sec",18%
same,C=C% Conversion,"[1]; 0.10 wt %, (1:2:3), DIDMA, 30 sec",45%
same,C=C% Conversion,"[1]; 0.10 wt %, (1:2:3), DIDMA, 60 sec",47%
same,C=C% Conversion,"[1]; 0.15 wt %, (1:2:0), DIDMA, 30 sec",19%
same,C=C% Conversion,"[1]; 0.15 wt %, (1:2:3), DIDMA, 30 sec",50%
same,C=C% Conversion,"[1]; 0.15 wt %, (1:2:3), DIDMA, 60 sec",54%
same,C=C% Conversion,"[1]; 0.20 wt %, (1:2:3), DIDMA, 30 sec",51%
same,C=C% Conversion,"[1]; 0.25 wt %, (1:2:3), DIDMA, 30 sec",50%
same,λmax in EtOH (first value),[2],470
same,ε (first value),"[2]; at first λmax, in M-1cm-1 (unit assumed)","30,200"
same,depth of cure,"depth of cure; 10 seconds, 75 watt tungsten halogen, about 260 mw/cm^2, 0.05 weight % dye, 2 weight % DIDMA, 60% urethane diacrylate, 30% DPHPA, 10% BDDA",greater than 1 cm
same,depth of cure,"depth of cure; 30 seconds, 350 watt tungsten halogen, about 500 mw/cm^2, dye 0.01, 0.05 and 0.1 weight, NPG 20 to 1",3 cm
same,cure time for the same depth (3 cm),"depth of cure; about 2 watts/cm^2, NPG 20 to 1",5 s
